Each molecule was assayed against WIL-FL (Homo sapiens, UniProt P01721) (assay: Unlabeled LC Protease Sensitivity Assay (proteinase K)). Conditions: small molecule 10 μM, WIL-FL 5 μM, proteinase K 50 nM, 2 hours at 37° C.
Assay type: biochemical
Summary of the method: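 WIL-FL light chain (5 μM) in PBS pH 7.4 + 0.02% Pluronic F-127 digested with proteinase K (50 nM) for 2 h at 37 °C with 10 μM compound (1% DMSO). Intact WIL-FL quantified by size-exclusion UPLC (A280). Fold protection = (A_compound−A_vehicle)/(A_no_protease−A_vehicle) from peak areas.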

Row | SMILES | Protection (fold protection of LC from protease)
1 | CCN(CC)c1ccc2c(C)c(CCOC(=O)NCCc3ccccc3)c(=O)oc2c1 [Compound 80, 2-(7-(diethylamino)-4-methyl-2-oxo-2H-chromen-3-yl)ethyl phenethylcarbamate] | A (A < 0.3))
2 | CCN(CC)c1ccc2c(C)c(CCN3C(=O)NC4(CCN(C(=O)c5ccc(C(N)=O)cc5)CC4)C3=O)c(=O)oc2c1 [Compound 198, 4-(3-(2-(7-(diethylamino)-4-methyl-2-oxo-2H-chromen-3-yl)ethyl)-2,4-dioxo-1,3,8-triazaspiro[4.5]decane-8-carbonyl)benzamide] | B (3 ≤ B < 0.6)
3 | CCN(CC)c1ccc2c(C)c(CCN3CC4(CCN(c5nccn6ccnc56)CC4)NC3=O)c(=O)oc2c1 [Compound 223, 3-(2-(7-(diethylamino)-4-methyl-2-oxo-2H-chromen-3-yl)ethyl)-8-(imidazo[1,2-a]pyrazin-8-yl)-1,3,8-triazaspiro[4.5]decan-2-one] | C (C ≥ 0.6)
4 | CCN(CC)c1ccc2c(C(F)(F)F)cc(=O)oc2c1 [Compound 24] | A (A < 0.3))
5 | CCN(CC)c1ccc2c(C)c(CCOC(=O)NCc3ccncc3)c(=O)oc2c1 [Compound 86, 2-(7-(diethylamino)-4-methyl-2-oxo-2H-chromen-3-yl)ethyl (pyridin-4-ylmethyl)carbamate] | B (3 ≤ B < 0.6)
6 | CCN(CC)c1ccc2c(C)c(CCOC(=O)NCc3cccc(-c4cn[nH]c4)c3)c(=O)oc2c1 [Compound 164, 2-(7-(diethylamino)-4-methyl-2-oxo-2H-chromen-3-yl)ethyl (3-(1H-pyrazol-4-yl)benzyl)carbamate] | C (C ≥ 0.6)
7 | C#CCN(CC(=C)C)c1ccc2c(C)cc(=O)oc2c1 [Compound 261, 4-methyl-7-((2-methylallyl)(prop-2-yn-1-yl)amino)-2H-chromen-2-one] | A (A < 0.3))
8 | CCCNc1ccc2c(C)cc(=O)oc2c1 [Compound 242, 4-methyl-7-(propylamino)-2H-chromen-2-one] | A (A < 0.3))
9 | CCN(CC)c1ccc2c(C)c(CCOC(=O)NCc3cccc(-c4ccccn4)c3)c(=O)oc2c1 [Compound 154, 2-(7-(diethylamino)-4-methyl-2-oxo-2H-chromen-3-yl)ethyl (3-(pyridin-2-yl)benzyl)carbamate] | C (C ≥ 0.6)
10 | CCN(CC)c1ccc2c(C)c(CCN3C(=O)NC4(CCNC4)C3=O)c(=O)oc2c1 (centres unmarked) [Compound 179, 3-(2-(7-(diethylamino)-4-methyl-2-oxo-2H-chromen-3-yl)ethyl)-1,3,7-triazaspiro[4.4]nonane-2,4-dione] | B (3 ≤ B < 0.6)
11 | CCN(CC)c1ccc2c(C)c(CCNC(=O)NCc3ccccn3)c(=O)oc2c1 [Compound 276, 1-(2-(7-(diethylamino)-4-methyl-2-oxo-2H-chromen-3-yl)ethyl)-3-(pyridin-2-ylmethyl)urea] | A (A < 0.3))
12 | Cc1cc(=O)oc2cc(NCC3CC3)ccc12 [Compound 246, 7-((cyclopropylmethyl)amino)-4-methyl-2H-chromen-2-one] | A (A < 0.3))
13 | CCN(CC)c1ccc2c(C)c(CCNC(=O)NCc3ccc4c(=O)[nH]ccc4c3)c(=O)oc2c1 [Compound 296, 1-(2-(7-(diethylamino)-4-methyl-2-oxo-2H-chromen-3-yl)ethyl)-3-((1-oxo-1,2-dihydroisoquinolin-6-yl)methyl)urea] | B (3 ≤ B < 0.6)
14 | CCN(CC)c1ccc2c(CCCOC(=O)NCc3ccncc3)cc(=O)oc2c1 [Compound 301, 3-(7-(diethylamino)-2-oxo-2H-chromen-4-yl)propyl (pyridin-4-ylmethyl)carbamate] | A (A < 0.3))
15 | CCN(CC)c1ccc2c(C)c(CCN3C(=O)NC4(CCN(S(=O)(=O)c5ccccc5)CC4)C3=O)c(=O)oc2c1 [Compound 200, 3-(2-(7-(diethylamino)-4-methyl-2-oxo-2H-chromen-3-yl)ethyl)-8-(phenylsulfonyl)-1,3,8-triazaspiro[4.5]decane-2,4-dione] | A (A < 0.3))
16 | CCN(CC)c1ccc2c(C)c(CCNC(=O)NCc3cccc4ccccc34)c(=O)oc2c1 [Compound 285, 1-(2-(7-(diethylamino)-4-methyl-2-oxo-2H-chromen-3-yl)ethyl)-3-(naphthalen-1-ylmethyl)urea] | A (A < 0.3))
17 | CCN(CC)c1ccc2c(C)c(CC(=O)O)c(=O)oc2c1 [Compound 54, 2-(7-(diethylamino)-4-methyl-2-oxo-2H-chromen-3-yl)acetic acid] | A (A < 0.3))
18 | CCOC(=O)N1CCC(NC(=O)OCCc2c(C)c3ccc(N(CC)CC)cc3oc2=O)CC1 [Compound 105, Ethyl 4-(((2-(7-(diethylamino)-4-methyl-2-oxo-2H-chromen-3-yl)ethoxy)carbonyl)amino)piperidine-1-carboxylate] | B (3 ≤ B < 0.6)

Row | SMILES | Protection (fold protection of LC from protease)
19 | CCN(CC)c1ccc2c(C)c(CCOC(=O)NCc3ccccn3)c(=O)oc2c1 [Compound 85, 2-(7-(diethylamino)-4-methyl-2-oxo-2H-chromen-3-yl)ethyl (pyridin-2-ylmethyl)carbamate] | B (3 ≤ B < 0.6)
20 | CCN(CC)c1ccc2c(C)c(CCOC(=O)NCCNc3ccccn3)c(=O)oc2c1 [Compound 132, 2-(7-(diethylamino)-4-methyl-2-oxo-2H-chromen-3-yl)ethyl (2-(pyridin-2-ylamino)ethyl)carbamate] | C (C ≥ 0.6)
21 | Cc1c(CN2CCOCC2)c(=O)oc2cc(OC(C)Cc3ccccc3)ccc12 (centres unmarked) [Compound 184, 4-methyl-3-(morpholinomethyl)-7-((1-phenylpropan-2-yl)oxy)-2H-chromen-2-one] | A (A < 0.3))
22 | CCN(CC)c1ccc2c(C)c(CCN3C(=O)NC4(CCN(S(=O)(=O)NC)C4)C3=O)c(=O)oc2c1 (centres unmarked) [Compound 204, 3-(2-(7-(diethylamino)-4-methyl-2-oxo-2H-chromen-3-yl)ethyl)-N-methyl-2,4-dioxo-1,3,7-triazaspiro[4.4]nonane-7-sulfonamide] | B (3 ≤ B < 0.6)
23 | CCN(CC)c1ccc2c(C)c(CCOC(=O)N3CCC(Cc4cccnc4)CC3)c(=O)oc2c1 [Compound 118, 2-(7-(diethylamino)-4-methyl-2-oxo-2H-chromen-3-yl)ethyl 4-(pyridin-3-ylmethyl)piperidine-1-carboxylate] | B (3 ≤ B < 0.6)
24 | CCN(CCCc1ccccc1)c1ccc2c(C)cc(=O)oc2c1 [Compound 31, 7-(ethyl(3-phenylpropyl)amino)-4-methyl-2H-chromen-2-one] | A (A < 0.3))
25 | Cc1cc(=O)oc2cc(OC(c3ccccc3)c3ccccc3)ccc12 [Compound 42, 7-(benzhydryloxy)-4-methyl-2H-chromen-2-one] | A (A < 0.3))
26 | Cc1cc(=O)oc2cc(OC(C)c3c(F)cccc3F)ccc12 (centres unmarked) [Compound 51, 7-(1-(2,6-difluorophenyl)ethoxy)-4-methyl-2H-chromen-2-one] | A (A < 0.3))
27 | CCN(CC)c1ccc2c(C)c(CCC(=O)NCCc3ccc(F)cc3)c(=O)oc2c1 [Compound 73] | A (A < 0.3))
28 | CCN(CC)c1ccc2c(C)c(CC(=O)NCCCCc3ccccc3)c(=O)oc2c1 [Compound 57, 2-(7-(diethylamino)-4-methyl-2-oxo-2H-chromen-3-yl)-N-(4-phenylbutyl)acetamide] | A (A < 0.3))
29 | CCN(CC)c1ccc2c(C)c(CCOC(=O)NCc3cccc(-c4ccccc4OS(=O)(=O)F)c3)c(=O)oc2c1 [Compound 219, 3′-((((2-(7-(diethylamino)-4-methyl-2-oxo-2H-chromen-3-yl)ethoxy)carbonyl)amino)methyl)-[1,1′-biphenyl]-2-yl sulfurofluoridate] | A (A < 0.3))
30 | CCN(CC)c1ccc2c(C)c(CCN3C(=O)NC4(CCN(c5ncnc6[nH]cnc56)CC4)C3=O)c(=O)oc2c1 [Compound 188, 3-(2-(7-(diethylamino)-4-methyl-2-oxo-2H-chromen-3-yl)ethyl)-8-(9H-purin-6-yl)-1,3,8-triazaspiro[4.5]decane-2,4-dione] | C (C ≥ 0.6)
31 | Cc1cc(=O)oc2cc(C(=O)Nc3ccnc4ccccc34)ccc12 [Compound 234, 4-methyl-2-oxo-N-(quinolin-4-yl)-2H-chromene-7-carboxamide] | A (A < 0.3))
32 | C=CCN(CC=C)c1ccc2c(C)cc(=O)oc2c1 [Compound 231, 7-(diallylamino)-4-methyl-2H-chromen-2-one] | A (A < 0.3))
33 | CCN(CC)c1ccc2c(C)c(CCOC(=O)NCc3cccc(C(=N)NO)c3)c(=O)oc2c1 [Compound 170, 2-(7-(diethylamino)-4-methyl-2-oxo-2H-chromen-3-yl)ethyl (3-(N-hydroxycarbamimidoyl)benzyl)carbamate] | C (C ≥ 0.6)
34 | CCN(CC)c1ccc2c(C)c(CCN3C(=O)NC4(CCN(S(=O)(=O)CC)C4)C3=O)c(=O)oc2c1 (centres unmarked) [Compound 203, 3-(2-(7-(diethylamino)-4-methyl-2-oxo-2H-chromen-3-yl)ethyl)-7-(ethylsulfonyl)-1,3,7-triazaspiro[4.4]nonane-2,4-dione] | C (C ≥ 0.6)
35 | CCN(CC)c1ccc2c(C)c(CCNC(=O)NCc3ccc(=O)[nH]c3)c(=O)oc2c1 [Compound 286, 1-(2-(7-(diethylamino)-4-methyl-2-oxo-2H-chromen-3-yl)ethyl)-3-((6-oxo-1,6-dihydropyridin-3-yl)methyl)urea] | A (A < 0.3))

— patent US11945806B2, “Stabilization of amyloidogenic immunoglobulin light chains” (The Scripps Research Institute, priority 2019, dated 2024)
